{"source": "patent US20240342330A1", "about": "“METHOD FOR THE PREPARATION OF SURFACES, PARTICULARLY OF CARDIAC PROSTHESIS” (BIOCOMPATIBILITY INNOVATION S.R.L., priority 2021, published 2024)", "assay_in_all_cases": "Bactericidal activity suspension assay", "assay_type_in_all_cases": "cell-based", "conditions_in_all_cases": "24 hours incubation", "key": {"[1]": {"test_system": "Pseudomonas aeruginosa ATCC 9027"}, "[2]": {"test_system": "Streptococcus viridans ATCC 6249"}, "[3]": {"test_system": "Candida albicans ATCC 10231"}, "[4]": {"test_system": "Salmonella enterica typhimurium ATCC 14028"}, "[5]": {"test_system": "Mycobacterium chelonae ATCC 35752"}, "[6]": {"test_system": "Listeria monocytogenes ATCC 19111"}, "[7]": {"test_system": "Staphylococcus aureus ATCC 6538"}, "[8]": {"test_system": "Aspergillus brasiliensis ATCC 16404"}, "[9]": {"test_system": "Enterococcus faecalis ATCC 29212"}}, "data": [{"smiles": "CCO", "note": "[ETHANOL, ethanol]", "values": [{"measurement": "BACTERICIDAL ACTIVITY %", "setting": "[1]", "result": 99.99, "unit": "%"}, {"measurement": "BACTERICIDAL ACTIVITY %", "setting": "[2]", "result": 90, "unit": "%"}, {"measurement": "BACTERICIDAL ACTIVITY %", "setting": "[3]", "result": 99.9, "unit": "%"}, {"measurement": "BACTERICIDAL ACTIVITY %", "setting": "[4]", "result": 90, "unit": "%"}, {"measurement": "BACTERICIDAL ACTIVITY %", "setting": "[5]", "result": 99, "unit": "%"}, {"measurement": "BACTERICIDAL ACTIVITY %", "setting": "[6]", "result": 0, "unit": "%"}, {"measurement": "BACTERICIDAL ACTIVITY %", "setting": "[7]", "result": 99, "unit": "%"}, {"measurement": "BACTERICIDAL ACTIVITY %", "setting": "[8]", "result": 90, "unit": "%"}, {"measurement": "BACTERICIDAL ACTIVITY %", "setting": "[9]", "result": 0, "unit": "%"}]}]}
